In this assay the test system is three-dimensional human skin model (type I collagen production). As to the kind of experiment: Type I collagen production in three-dimensional human skin model (TESTSKIN LSE-high), Western blotting with imaging analysis. The class given is cell-based. On the procedure: Three-dimensional human skin models are widely used in safety evaluation and effectiveness evaluation as a simulated model of human skin. In this test, TESTSKIN (LSE-high) (Toyobo Co., Ltd.) was used as a three-dimensional human skin model.
A culture medium was added to the outer well of TESTSKIN (LSE-high) and cultured for 24 hours. Thereafter, the culture solution was changed and each agent was added by 100 μl onto the tissues in the assay ring, after which the medium was cultured for 36 hours. Thereafter, the tissues were collected and a tissue extraction solution (50 mM Tris-HCl (pH 7.5), 0.5% (Octylphenoxy) polyethoxyethanol (Sigma-Aldrich Corp.)) was added, and then the mixture was homogenized using a homogenizer made of fluorocarbon resin. The homogenized mixture was centrifuged for 30 minutes at 10,000×G to remove tissue fragments, and then dialyzed overnight in distilled water at 4° C. Thereafter, the dialyzed mixture was freeze-dried to remove water. A tissue extraction solution was added to obtain a x20 concentrate, and this concentrate was used in Western blotting as a three-dimensional skin model extract sample.
Using a three-dimensional human skin model extract sample, 10 μg of protein was applied per lane, after which the sample was separated via SDS-PAGE and the result was transferred onto nitrocellulose membranes. The transferred nitrocellulose membranes were soaked in a blocking solution (solution prepared by dissolving skim milk in a PBS containing 0.1% polyoxyethylene (20) sorbitan monolaurate to achieve a concentration of 5%) and blocked for one whole day at 4° C. The blocked membranes were washed with a washing solution (PBS containing 0.1% polyoxyethylene (20) sorbitan monolaurate) and then soaked in a primary antibody (polyclonal antibody of type I collagen (Rockland Inc.) adjusted to 500 ng/ml using a washing solution) to cause reaction for 1 hour at room temperature. The reacted membranes were washed and then soaked in a secondary antibody (horseradish peroxidase labeled anti-rabbit immunoglobulin G adjusted to 250 ng/ml using a washing solution) to cause reaction for 1 hour at room temperature. The reacted membranes were washed and then detection was performed using an ECL plus Western blotting detection reagent (Amersham Biosciences Inc.). The detected band was also scanned into an image scanner (Amersham Biosciences Inc.) and analyzed using image master software (Amersham Biosciences Inc.) for conversion to numerical values.
Background: Immunoblotting shows a protein as a band on a membrane.

The mark [1] stands for this setting: 10 μM alone, Example 3, FIGS. 9 and 10.
Where [2] appears, read: 10 μM, Example 3, FIGS. 7 and 8.
Where [3] appears, read: 30 μM, Example 3, FIGS. 7 and 8.
The mark [4] stands for this setting: 10 μM, 36 h treatment, Example 1, FIGS. 1 and 2.

Non-standard residues stand in square brackets, D forms with d. No end group written: not given here. Hyp = O=C(O)[C@@H]1C[C@@H](O)CN1

For “Gly-Glu-Pro-Arg (GEPR) [peptide derived from an immunoglobulin G decomposition product, synthesized]”, the “type I collagen production compared to the level in the untreated control” value by setting is: under setting [1], 2.10 times; under setting [2], 2.15 times; under setting [3], 3.55 times.
For “Lys-Thr-Thr-Lys-Ser (KTTKS) [pentapeptide derived from an α1 collagen decomposition product, synthesized]”, in that order: 1.80 times, 1.80 times and 2.45 times.
Take `COc1cc([C@@H]2Oc3c(O)cc([C@H]4Oc5cc(O)cc(O)c5C(=O)[C@@H]4O)cc3[C@H]2CO)ccc1O` [silychristin]: the “type I collagen production compared to the level in the untreated control” value under setting [4] stood at 0.95 times.
Take Gly-Pro-[Hyp]: the “type I collagen production compared to the level in the untreated control” value was determined as 1.05 times (5 μM, Example 2, FIGS. 3 and 4); 1.15 times (10 μM, Example 2, FIGS. 3 and 4); 1.25 times (30 μM used alone, Example 2, FIGS. 5 and 6); 1.25 times (30 μM, Example 2, FIGS. 3 and 4).
With Gly-His-Lys, the “type I collagen production compared to the level in the untreated control” value is 1.75 times under setting [1], 1.75 times under setting [2] and 2.70 times under setting [3].
Consider `COc1cc(C2Oc3cc([C@H]4Oc5cc(O)cc(O)c5C(=O)[C@@H]4O)ccc3OC2CO)ccc1O` (stereo partly drawn) [silybin], for which the “type I collagen production compared to the level in the untreated control” value (5 μM alone, Example 3, FIGS. 9 and 10) stood at 1.95 times; the “type I collagen production compared to the level in the untreated control” value (5 μM used alone, Example 2, FIGS. 5 and 6) is listed as 1.85 times; the “type I collagen production compared to the level in the untreated control” value under setting [4] turned out to be 3.2 times.
With `COc1cc([C@@H]2[C@H]3CO[C@@]4(O)C(=O)[C@@H]2C=C([C@H]2Oc5cc(O)cc(O)c5C(=O)[C@@H]2O)[C@@H]34)ccc1O` [silydianin], the “type I collagen production compared to the level in the untreated control” value under setting [4] came out at 0.9 times.

The values are drawn from US8022038B2, “Composition for acceleration of type I collagen production” (Fancl Corporation, priority 2005, dated 2011).
